From the supplement of paper PMC10307832

How the values were obtained:
Experiment in all cases: relative viability (nuclei count vs DMSO), 5 days (fraction); higher = more cells survive
Bexarotene + Trametinib = compound: C=C(c1ccc(C(=O)O)cc1)c1cc2c(cc1C)C(C)(C)CCC2(C)C [Bexarotene] + CC(=O)Nc1cccc(-n2c(=O)n(C3CC3)c(=O)c3c(Nc4ccc(I)cc4F)n(C)c(=O)c(C)c32)c1 [Trametinib] (partner 0.02 µM)
Procedure, shortened: (§1)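 Lung cancer cell lines were pin-tool dosed in 1536-well plates on the day after seeding, with either a lone drug or a fixed anchor-drug dose plus five library-drug doses (not always all listed) in √10 steps. Nuclei were counted on 4× images after 5 days. Relative viability is the ratio of treated-well to vehicle-well nuclei counts, with each value a median of duplicate plates.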

Bexarotene + Pemetrexed = compound: C=C(c1ccc(C(=O)O)cc1)c1cc2c(cc1C)C(C)(C)CCC2(C)C [Bexarotene] + Nc1nc2[nH]cc(CCc3ccc(C(=O)N[C@@H](CCC(=O)O)C(=O)O)cc3)c2c(=O)[nH]1 [Pemetrexed] (partner 0.2 µM)
Procedure, shortened: as §1

Bexarotene + Navitoclax = compound: C=C(c1ccc(C(=O)O)cc1)c1cc2c(cc1C)C(C)(C)CCC2(C)C [Bexarotene] + CC1(C)CCC(c2ccc(Cl)cc2)=C(CN2CCN(c3ccc(C(=O)NS(=O)(=O)c4ccc(N[C@H](CCN5CCOCC5)CSc5ccccc5)c(S(=O)(=O)C(F)(F)F)c4)cc3)CC2)C1 [Navitoclax] (partner 0.5 µM)
Procedure, shortened: as §1

Bexarotene + Phenformin = compound: C=C(c1ccc(C(=O)O)cc1)c1cc2c(cc1C)C(C)(C)CCC2(C)C [Bexarotene] + N=C(N)NC(=N)NCCc1ccccc1 [Phenformin] (partner 250 µM)
Procedure, shortened: as §1

Row | Cell Line | relative viability (Bexarotene + Trametinib; first compound 0.08 µM) | relative viability (Bexarotene + Trametinib; first compound 0.253 µM) | relative viability (Bexarotene + Trametinib; first compound 0.8 µM) | relative viability (Bexarotene + Trametinib; first compound 2.53 µM) | relative viability (Bexarotene + Trametinib; first compound 8 µM) | relative viability (Bexarotene + Pemetrexed; first compound 0.08 µM) | relative viability (Bexarotene + Pemetrexed; first compound 0.253 µM) | relative viability (Bexarotene + Pemetrexed; first compound 0.8 µM) | relative viability (Bexarotene + Pemetrexed; first compound 2.53 µM) | relative viability (Bexarotene + Pemetrexed; first compound 8 µM) | relative viability (Bexarotene + Navitoclax; first compound 0.08 µM) | relative viability (Bexarotene + Navitoclax; first compound 0.253 µM) | relative viability (Bexarotene + Navitoclax; first compound 0.8 µM) | relative viability (Bexarotene + Navitoclax; first compound 2.53 µM) | relative viability (Bexarotene + Navitoclax; first compound 8 µM) | relative viability (Bexarotene + Phenformin; first compound 0.08 µM) | relative viability (Bexarotene + Phenformin; first compound 0.253 µM) | relative viability (Bexarotene + Phenformin; first compound 0.8 µM) | relative viability (Bexarotene + Phenformin; first compound 2.53 µM) | relative viability (Bexarotene + Phenformin; first compound 8 µM)
1 | PC-3 [JPC-3] | 0.708 | 0.719 | 0.595 | 0.654 | 0.678 | 1.07 | 1.05 | 1.05 | 0.541 | 1 | 0.86 | 0.904 | 0.754 | 0.797 | 0.693 | 0.489 | 0.514 | 0.448 | 0.52 | 0.505
2 | NCI-H1993 | 0.547 | 0.541 | 0.507 | 0.395 | 0.544 | 0.714 | 0.611 | 0.537 | 0.534 | 0.514 | 1.11 | 1.03 | 0.878 | 0.924 | 0.841 | 0.527 | 0.553 | 0.572 | 0.576 | 0.557
3 | NCI-H1915 | 0.297 | 0.286 | 0.266 | 0.255 | 0.218 | 0.519 | 0.492 | 0.54 | 0.473 | 0.439 | 0.846 | 0.792 | 0.834 | 0.77 | 0.728 | 0.378 | 0.373 | 0.382 | 0.383 | 0.36
4 | RERF-LC-KJ | 0.879 | 0.85 | 0.814 | 0.873 | 0.799 | 0.506 | 0.513 | 0.501 | 0.506 | 0.47 | 1.07 | 0.934 | 1.08 | 1 | 0.92 | 0.407 | 0.405 | 0.402 | 0.364 | 0.426
5 | LOU-NH91 | 0.81 | 0.856 | 0.807 | 0.795 | 0.759 | 0.449 | 0.43 | 0.399 | 0.399 | 0.386 | 0.608 | 0.637 | 0.502 | 0.597 | 0.512 | 0.687 | 0.673 | 0.595 | 0.6 | 0.49
6 | NCI-H2347 | 0.31 | 0.235 | 0.25 | 0.279 | 0.299 | 0.484 | 0.424 | 0.399 | 0.445 | 0.462 | 0.971 | 0.846 | 0.63 | 0.793 | 0.783 | 0.361 | 0.434 | – | 0.376 | 0.353
7 | NCI-H2126 | 0.639 | 0.56 | 0.553 | 0.619 | 0.54 | 0.822 | 0.679 | 0.621 | 0.742 | 0.636 | 0.925 | 0.916 | 0.844 | 0.958 | 0.872 | 0.529 | 0.535 | 0.526 | 0.56 | 0.55
8 | HCC-827 | 0.525 | 0.576 | 0.493 | 0.496 | 0.51 | 0.285 | 0.271 | 0.263 | 0.317 | 0.245 | 1.06 | 1.05 | 0.97 | 0.975 | 0.868 | 0.51 | 0.444 | 0.493 | 0.463 | 0.444
9 | NCI-H3122 | 0.25 | 0.229 | 0.191 | 0.238 | 0.224 | 0.219 | 0.202 | 0.194 | 0.217 | 0.213 | 1.12 | 1.11 | 1.1 | 1.01 | 1.09 | 0.379 | 0.367 | 0.359 | 0.385 | 0.372
10 | HOP-62 | 0.412 | 0.502 | 0.385 | 0.412 | 0.422 | 0.332 | 0.297 | 0.336 | 0.314 | 0.361 | 1.02 | 1.07 | 1.26 | 1.01 | 1.17 | 0.738 | 0.701 | 0.698 | 0.651 | 0.571
11 | HCC-44 | 1.02 | 1.03 | 0.884 | 0.899 | 1.08 | 0.694 | 0.738 | 0.658 | 0.741 | 0.65 | 0.987 | 1.06 | 0.969 | 1.05 | 0.871 | 0.148 | 0.409 | 0.27 | 0.145 | 0.289
